Laboratory results reported in publication PMC7145423, “Cooperative enzymatic control of N-acyl amino acids by PM20D1 and FAAH” (eLife, 2020).

What was measured:
Assay type in all cases: biochemical
PM20D1-flag [1] = molecular target: T1, PM20D1-flag (Mus musculus, UniProt Q8C165); assay: condensation with amino acid (synthase direction), LC-MS; settings: co-substrates Gly, Ser or Phe; PBS, 1 hr 37°C
T1 construct: flag-tagged, secreted, conditioned medium of transfected HEK293T cells
T1 sequence (Q8C165 25-503): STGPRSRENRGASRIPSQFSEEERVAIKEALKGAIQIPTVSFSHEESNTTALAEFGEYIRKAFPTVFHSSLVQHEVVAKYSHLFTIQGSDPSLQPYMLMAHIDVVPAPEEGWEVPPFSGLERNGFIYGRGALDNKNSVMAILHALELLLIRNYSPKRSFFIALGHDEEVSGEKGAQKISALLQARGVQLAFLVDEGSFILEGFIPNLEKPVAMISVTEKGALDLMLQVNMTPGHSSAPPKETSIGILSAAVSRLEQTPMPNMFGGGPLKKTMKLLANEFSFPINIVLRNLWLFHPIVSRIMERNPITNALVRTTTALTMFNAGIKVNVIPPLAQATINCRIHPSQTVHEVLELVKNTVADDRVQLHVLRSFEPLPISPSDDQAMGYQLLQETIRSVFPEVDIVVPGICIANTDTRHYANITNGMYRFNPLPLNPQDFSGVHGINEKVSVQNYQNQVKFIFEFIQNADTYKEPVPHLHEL

FAAH-flag = molecular target: T2, FAAH-flag (Mus musculus, UniProt O08914); assay: hydrolysis, LC-MS; settings: 100 µM substrate, 100 µg lysate protein, PBS, 1 hr 37°C
T2 construct: C-terminal flag tag, transient transfection in HEK293T, cell lysate
T2 sequence (O08914 1-579): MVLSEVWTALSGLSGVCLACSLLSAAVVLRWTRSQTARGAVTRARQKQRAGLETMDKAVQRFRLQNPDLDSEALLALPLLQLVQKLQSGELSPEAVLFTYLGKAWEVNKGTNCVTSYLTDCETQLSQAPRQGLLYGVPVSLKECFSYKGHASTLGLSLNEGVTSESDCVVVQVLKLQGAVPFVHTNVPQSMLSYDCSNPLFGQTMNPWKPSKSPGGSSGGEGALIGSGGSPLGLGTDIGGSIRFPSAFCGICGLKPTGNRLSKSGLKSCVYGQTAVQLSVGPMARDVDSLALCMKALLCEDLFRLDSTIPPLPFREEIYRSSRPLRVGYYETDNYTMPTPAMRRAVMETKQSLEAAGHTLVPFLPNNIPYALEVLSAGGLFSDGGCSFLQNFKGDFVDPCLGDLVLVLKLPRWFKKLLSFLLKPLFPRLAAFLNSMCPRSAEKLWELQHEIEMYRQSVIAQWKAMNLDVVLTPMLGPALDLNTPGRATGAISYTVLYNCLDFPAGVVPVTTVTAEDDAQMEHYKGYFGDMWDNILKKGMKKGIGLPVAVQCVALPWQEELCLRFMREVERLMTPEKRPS

PM20D1-flag [2] = molecular target: T1, PM20D1-flag; assay: hydrolysis, LC-MS; settings: 100 µM substrate, 100 µg conditioned medium protein, PBS, 1 hr 37°C

| SMILES | hydrolysis, LC-MS (FAAH-flag) | further results |
| --- | --- | --- |
| CCCCC/C=C\C/C=C\C/C=C\C/C=C\CCCC(=O)O [arachidonic acid] |  | condensation with amino acid (synthase direction), LC-MS (PM20D1-flag [1]): PM20D1 also efficiently catalyzed the condensation of arachidonic acid with all three |
| CCCCC/C=C\C/C=C\C/C=C\C/C=C\CCCC(=O)N[C@@H](CO)C(=O)O [C20:4-Ser] | A strong preference was observed for C20:4-Ser over the other three N-acyl amino acid substrates |  |
| CCCCC/C=C\C/C=C\C/C=C\C/C=C\CCCC(=O)NCC(=O)O [C20:4-Gly] |  | hydrolysis, LC-MS (PM20D1-flag [2]): PM20D1 exhibited robust hydrolysis activity only on C20:4-Gly |
| CCCCC/C=C\C/C=C\C/C=C\C/C=C\CCCC(=O)NCCO [anandamide] | FAAH showed robust hydrolysis activity with anandamide as a substrate |  |
